Results: publication PMC5750218, “Protein-inspired antibiotics active against vancomycin- and daptomycin-resistant bacteria” (Nature Communications, 2018)

Key:
[1] = SPR membrane binding assay; conditions: L1 chip, DMPC / DMPG bilayers
Experimental: SPR experiments were performed using a BIAcore 3000 (GE Health) instrument with a Biacore vesicle capture L1 sensor chip. […] Small unilamellar vesicles (SUV) were prepared in phosphate buffered saline (PBS) (pH 7.4) by sonication and extrusion. […] PBS was then added into each flask to give a suspension, which was sonicated for 5 cycles of 5 min each. […] The SUVs were injected across the L1 sensor chip for 30 min at a flow rate of […] to form a supported lipid bilayer. The coverage of the lipid bilayer was determined from the extent of non-specific binding of bovine serum albumin (0.1 mg mL^-1 in PBS, 5 min injection). A series of concentrations of vancomycin and […] passed sequentially over the different phospholipid-containing flow cells at a flow rate of 30 μL min^-1 for 180 s. The amount of antibiotic bound at equilibrium just before the end of the injection was corrected by subtraction of the bulk-refractive index difference observed at the beginning and the end of each injection. After each injection cycle, the lipid surface was regenerated with 20 mM 3-[(3-cholamidopropyl)dimethylammonio]-1-propanesulfonate (CHAPS) and a fresh lipid bilayer was loaded as described above. All assays were carried out at 25 °C in triplicate. […]

[2] = system: MRSA (ATCC 43300); conditions: 20 days, increasing sub-lethal concentrations
Experimental: A resistance induction assay was conducted for vancomycin, daptomycin, compound 17 and compound 24 [43].
S. aureus ATCC®43300™ was grown in Mueller Hinton broth supplemented with 50 µg mL^−1 of CaCl2. The bacterial culture was incubated at 37 °C in a shaker at 195 rpm.
The mid log S. aureus growth culture was serially diluted and plated on a solid LB agar plates in quadruplicates and incubated at 37 °C overnight to determine viable colony count.
The initial determination of the compound MICs were taken from the literature and empirically measured. […] The plate was then incubated at 37 °C overnight.
After overnight incubation, the growth of the S. aureus (MRSA) culture was determined by reading at OD600 on the Epoch microplate spectrophotometer and 0.1 OD600 was the chosen cut-off determining growth vs. no growth.

[3] = system: MRSA (Strain ATCC 43300); assay: MRSA thigh infection in vivo efficacy model (neutropenic mice); set-up: species or system Staphylococcus aureus; conditions: single 25 mg kg^−1 SC dose
Experimental: Thighs were then removed, weighed and homogenised in a fixed volume of saline.
Untreated animals received equivalent volume of saline (Baxter). […] For each mouse, both thighs were collected aseptically by cutting the leg at the hip and knee, placed in 10 mL of cold sterile saline and the individual weight of each thigh recorded.

SMILES	Membrane association by SPR compared to vancomycin [1]	Induced resistance on serial culture [2]	Efficacy in thigh infection model [3]
CCCCCCCCCCCCCC(=O)N[C@@H](CCCCN)C(=O)N[C@@H](CCCCN)C(=O)N[C@@H](CCCCN)C(=O)N[C@@H](CCCCNC(=O)[C@H]1NC(=O)[C@H]2NC(=O)[C@H](NC(=O)[C@@H]3NC(=O)[C@H](CC(N)=O)NC(=O)[C@H](NC(=O)[C@@H](CC(C)C)NC)[C@H](O)c4ccc(c(Cl)c4)Oc4cc3cc(c4O[C@@H]3O[C@H](CO)[C@@H](O)[C@H](O)[C@H]3O[C@H]3C[C@](C)(N)[C@H](O)[C@H](C)O3)Oc3ccc(cc3Cl)[C@H]2O)c2ccc(O)c(c2)-c2c(O)cc(O)cc21)C(=O)O [Compound 17, nC13CO-KKK-K(Vancomycin)-OH]	Increased membrane association	low levels of resistance compared to daptomycin	–
CN[C@H](CC(C)C)C(=O)N[C@H]1C(=O)N[C@@H](CC(N)=O)C(=O)N[C@H]2C(=O)N[C@H]3C(=O)N[C@H](C(=O)N[C@H](C(=O)O)c4cc(O)cc(O)c4-c4cc3ccc4O)[C@H](O)c3ccc(c(Cl)c3)Oc3cc2cc(c3O[C@@H]2O[C@H](CO)[C@@H](O)[C@H](O)[C@H]2O[C@H]2C[C@](C)(N)[C@H](O)[C@H](C)O2)Oc2ccc(cc2Cl)[C@H]1O [Compound 1, Vancomycin]	–	–	almost inactive
